In patent EP0545103A1, “Insecticidal, acaricidal and molluscicidal 1-(substituted) thioalkylpyrroles” (priority 1991, dated 1993):

Assays:
Type in all cases: in vivo
[1] = tested on: Heliothis virescens, egg, tobacco budworm; experiment: Tobacco budworm egg test, dipped cotton leaf and eggs; design: key: 0: no effect; 10-25% kill; 26-35% kill; 36-45% kill; 46-55% kill; 56-65% kill; 66-75% kill; 76-85% kill; 86-99% kill; 9: 100% kill; conditions: mortality rating after 3 days
Method: (§1) Test solutions are prepared by dissolving the test compound in a 35% acetone in water mixture to give a concentration of 10,000 ppm. Subsequent dilutions are made with water as needed.
Heliothis virescens, egg, tobacco budworm
A young cotton leaf about 6-7cm in length is dipped in an agitated test suspension for about 3 seconds. Eggs are collected on a cheesecloth and the cloth is cut into 10-20mm squares, each containing approximately 50-100 eggs which are 6-30 hours old. The egg-containing cheesecloth square is similarly dipped in a test suspension and placed on a treated cotton leaf. The combination is dried in a hood and then placed in an 8 ounce Dixie® cup #2168-ST (240ml volume, 6cm tall, 9.5cm top diameter, 8.0cm bottom diameter) into which a 5cm length of damp dental wick has been placed. The cup is covered with a clear plastic lid and held for 3 days, after which mortality counts are made.
(§2) All of the above tests are rated according to the rating scale shown below.

[2] = tested on: Heliothis virescens, 3rd instar tobacco budworm; experiment: Tobacco budworm 3rd instar test, dipped cotton cotyledons; design: key: 0: no effect; 10-25% kill; 26-35% kill; 36-45% kill; 46-55% kill; 56-65% kill; 66-75% kill; 76-85% kill; 86-99% kill; 9: 100% kill; conditions: mortality rating after 3 days
Method: as §1
Heliothis virescens, 3rd instar tobacco budworm
Cotton cotyledons are dipped in the test solution and allowed to dry in a hood. When dry, each is cut into quarters and ten sections are placed individually in 30 mL plastic medicine cups containing a 5-7mm long piece of damp dental wick. One 3rd instar caterpillar is added to each cup and the cup is sealed with MYLAR® film. Treatments are maintained for 3 days before a mortality count and observation of reduction in feeding damage are made.
as §2

[3] = tested on: Spodoptera eridania, 3rd instar larvae, southern armyworm; experiment: Southern armyworm 7-day residual test; conditions: R designates Residual: 7-day residual foliage, concentration not given; for ARMYWORM Day 3 R: rating at 3 days; for ARMYWORM Day 5 R: rating at 5 days
Method: as §1
Spodoptera eridania, 3rd instar larvae, southern armyworm, 7-day residual
The limabean leaves treated in the above test are maintained under high intensity lamps in the greenhouse for 7 days. These lamps duplicate the effects of a bright sunny day in June in New Jersey and are kept on for 14 hour day length. After 7 days, the foliage is sampled and assayed as in the above-said test.
as §2

[4] = tested on: Spodoptera eridania, 3rd instar larvae, southern armyworm; experiment: Southern armyworm systemic uptake (stem systemic) test; design: key: 0: no effect; 10-25% kill; 26-35% kill; 36-45% kill; 46-55% kill; 56-65% kill; 66-75% kill; 76-85% kill; 86-99% kill; 9: 100% kill; conditions: cut stem in emulsion 3 days
Text: Spodoptera eridania, systemic uptake, 3rd instar larvae, southern armyworm
Subsequent 10-fold dilutions are made with water as needed. Sieva limabean plants, with the primary leaves expanded to a length of 7-8 cm, are cut off at least 3 cm above the soil level to avoid contamination with soil bacteria which will cause decay of the stem during the test. The cut stem is placed in the test emulsion and wrapped with a bit of cotton to hold the stem off the bottom of the bottle and to limit evaporation. The treated stem is thus maintained for 3 days at 27° C to allow the test compound to be taken up into the plant. Following this, one leaf is removed from the plant and placed in a 100 x 10 mm petri dish with 10 southern armyworms as described above. Mortality counts and observations of feeding damage are made 3 and 5 days later.
as §2

[5] = tested on: Diabrotic undecimpunctata howardi, 3rd instar southern corn rootworm; experiment: Southern corn rootworm soil test; design: key: 0: no effect; 10-25% kill; 26-35% kill; 36-45% kill; 46-55% kill; 56-65% kill; 66-75% kill; 76-85% kill; 86-99% kill; 9: 100% kill; conditions: 50 (ppm as headed), mortality rating after 6 days
Method: Diabrotic undecimpunctata howardi, 3rd instar southern corn rootworm
One cc of fine talc is placed in a 30 mL wide-mouth screw-top glass jar. One mL of the appropriate acetone test solution is pipetted onto the talc so as to provide 1.25 and 0.25 mg of active ingredient per jar. The jars are set under a gentle air flow until the acetone is evaporated. The dried talc is loosened, 1 cc of millet seed is added to serve as food for the insects and 25 mL of moist soil is added to each jar. The jar is capped and the contents thoroughly mixed on a Vortex Mixer. Following this, ten 3rd instar rootworms are added to each jar and the jars are loosely capped to allow air exchange for the larvae. The treatments are held for 6 days when mortality counts are made. Missing larvae are presumed dead, since they decompose rapidly and can not be found. The concentrations used in this test correspond approximately to 50 and 10 kg/ha, respectively.
as §2

[6] = tested on: Tetranychus urticae (OP-resistant strain), 2-spotted spider mite; experiment: 2-spotted spider mite test, dipped infested limabean plants; design: key: 0: no effect; 10-25% kill; 26-35% kill; 36-45% kill; 46-55% kill; 56-65% kill; 66-75% kill; 76-85% kill; 86-99% kill; 9: 100% kill
Method: as §1
Tetranychus urticae (OP-resistant strain), 2-spotted spider mite
Sieva limabean plants with primary leaves expanded to 7-8 cm are selected and cut back to one plant per pot. A small piece is cut from an infested leaf taken from the main colony and placed on each leaf of the test plants. This is done about 2 hours before treatment to allow the mites to move over to the test plant and to lay eggs. The size of the cut, infested leaf is varied to obtain about 100 mites per leaf. At the time of test treatment, the piece of leaf used to transfer the mites is removed and discarded. The newly mite-infested plants are dipped in the test solution for 3 seconds with agitation and set in the hood to dry. After 2 days one leaf is removed and mortality counts are made. After 5 days, another leaf is removed and observations are made of mortality of the eggs and/or newly emerged nymphs.
as §2

[7] = tested on: Aphis fabae, mixed instar, bean aphid; experiment: Bean aphid spray test on nasturtium; design: key: 0: no effect; 10-25% kill; 26-35% kill; 36-45% kill; 46-55% kill; 56-65% kill; 66-75% kill; 76-85% kill; 86-99% kill; 9: 100% kill; conditions: 100 ppm
Method: as §1
Aphis fabae, mixed instar, bean aphid
Pots containing single nasturtium plants (Tropaeolum sp.) about 5 cm tall are infested with about 100-200 aphids one day prior to treatment. Each pot is sprayed with the test solution for 2 revolutions of a 4 rpm turntable in a hood, using a #154 DeVilbiss atomizer. The spray tip is held about 15 cm from the plant and the spray directed so as to give complete coverage of the plants and the aphids. The sprayed pots are set on their sides on white enamel trays and mortality estimates are made after 2 days.
as §2

[8] = tested on: Empoasca abrupta, adult, western potato leafhopper; experiment: Western potato leafhopper systemic uptake test; design: key: 0: no effect; 10-25% kill; 26-35% kill; 36-45% kill; 46-55% kill; 56-65% kill; 66-75% kill; 76-85% kill; 86-99% kill; 9: 100% kill; conditions: 100 ppm
Method: Empoasca abrupta, adult, western potato leafhopper Systemic Uptake
An emulsion containing 0.1 gm of the test material, 0.2 gm of Emulphor EL-620® emulsifier, 10 mL of acetone and 90 mL of water is prepared and diluted 10-fold with water to give a 100 ppm emulsion. Subsequent 10-fold dilutions are made with water as needed. Sieva limabean plants, with the primary leaves expanded to a length of 7-8 cm, are cut off at least 3 cm above the soil level to avoid contamination with soil bacteria which will cause decay of the stem during the test. The cut stem is placed in the test emulsion and wrapped with a bit of cotton to hold the stem off the bottom of the bottle and to limit evaporation. The treated stem is maintained for 3 days at 27°C to allow the test compound to be taken up into the plant. Following this, one leaf is removed from the plant and placed in a 100 x 10 mm petri dish containing a moist filter paper and about 10 adult leafhoppers as described above. Mortality counts are made after 2 days.
as §2

[9] = tested on: Spodoptera eridania, 3rd instar larvae, southern armyworm; experiment: Southern armyworm 3rd instar test, dipped limabean leaf; conditions: for ARMYWORM Day 3: rating at 3 days; for ARMYWORM Day 5: rating at 5 days
Method: as §1
Spodoptera eridania, 3rd instar larvae, southern armyworm
A Sieva limabean leaf expanded to 7-8 cm in length is dipped in the test solution with agitation for 3 seconds and allowed to dry in a hood. The leaf is then placed in a 100 x 10 mm petri dish containing a damp filterpaper on the bottom and ten 3rd instar caterpillars. At 3 and 5 days, observations are made of mortality, reduced feeding, or any interference with normal molting.
as §2

[10] = 300 ppm, adult mites, rating scale 0-9
[11] = 300 ppm, mite eggs, rating scale 0-9
[12] = 300 ppm, mite nymphs, rating scale 0-9
[13] = systemic uptake, rating scale 0-9

Row | SMILES | TOBACCO BUDWORM Egg ([1]; 1000 ppm) | ARMYWORM Day 3 R [3] | ARMYWORM Day 5 R [3] | ARMYWORM Stem Sys [4] | SOUTHERN CORN ROOTWORM [5] | TOBACCO BUDWORM Egg ([1]; 100 ppm) | ARMYWORM Day 3 ([9]; 10 ppm) | ARMYWORM Day 5 ([9]; 10 ppm) | ARMYWORM Day 3 ([9]; 100 ppm) | ARMYWORM Day 5 ([9]; 100 ppm) | ARMYWORM Day 3 ([9]; 1000 ppm) | ARMYWORM Day 5 ([9]; 1000 ppm) | OP-RESISTANT MITES Adult [6, 10] | OP-RESISTANT MITES Egg [6, 11] | OP-RESISTANT MITES Nymph [6, 12] | APHIDS ([7]; rating scale 0-9) | LEAFHOPPER Systemic [8, 13] | other results
1 | N#Cc1c(Cl)c(C(F)(F)F)n(CSC2=NCCCN2)c1-c1ccc(Cl)cc1 [Example 5] | 0 | 9 (100% kill) | 9 (100% kill) | 8 (86-99% kill) | 0 | – | – | – | – | – | – | – | – | – | – | – | – | TOBACCO BUDWORM 3rd Instar ([2]; 10 ppm): 0; TOBACCO BUDWORM 3rd Instar ([2]; 100 ppm): 9 (100% kill); TOBACCO BUDWORM 3rd Instar ([2]; 1000 ppm): 9 (100% kill); OP-RESISTANT MITES Adult ([6]; 10 ppm, mortality rating after 2 days): 0; OP-RESISTANT MITES Egg ([6]; 10 ppm, rating after 5 days): 0; OP-RESISTANT MITES Nymph ([6]; 10 ppm, rating after 5 days): 0; OP-RESISTANT MITES Egg ([6]; 100 ppm, rating after 5 days): 9 (100% kill); OP-RESISTANT MITES Egg ([6]; 300 ppm, rating after 5 days): 0; OP-RESISTANT MITES Nymph ([6]; 300 ppm, rating after 5 days): 0; APHIDS ([7]; spray, mortality rating after 2 days): 0; LEAFHOPPER Systemic ([8]; cut stem in emulsion 3 days, mortality rating after 2 days): 8 (86-99% kill)
2 | N#Cc1c(Br)c(C(F)(F)F)n(CSC2=NCCCCN2)c1-c1ccc(Cl)cc1 [Example 11] | 5 (56-65% kill) | 9 (100% kill) | 9 (100% kill) | 9 (100% kill) | 0 | 3 (36-45% kill) | 9 (100% kill) | 9 (100% kill) | 9 (100% kill) | 9 (100% kill) | 9 (100% kill) | 9 (100% kill) | 0 | 0 | 0 | 0 | 9 (100% kill) | –
3 | N#Cc1c(Br)c(C(F)(F)F)n(CSc2ncc[nH]2)c1-c1ccc(Cl)cc1 [Example 1] | 0 | 9 (100% kill) | 9 (100% kill) | 0 | 0 | 0 | 9 (100% kill) | 9 (100% kill) | 9 (100% kill) | 9 (100% kill) | 9 (100% kill) | 9 (100% kill) | 0 | 0 | 0 | 0 | 0 | –
